Experiments:
[1] = system: unanesthetized spontaneously hypertensive rats (SHR); assay: Study in unanesthetized spontaneously hypertensive rats (intravenous, systolic blood pressure); format: in vivo, rat (SHR); details: for Systolic blood pressure changes (ΔmmHg) after treatment, 1H 30 min / Systolic blood pressure changes (ΔmmHg) after treatment, 3H / Systolic blood pressure changes (ΔmmHg) after treatment, 6H: 0.1 mg/kg, intravenous
Procedure: Study in Unanesthetized Spontaneously Hypertensive Rats (SHR)
SHR male rats weighing 280 to 350 g and aged from 18 to 24 weeks are anaesthetized with imalgene® (150 mg/kg i.p.). Two polyethylene catheters are introduced, one into the abdominal aorta for the recording of hemodynamic parameters and the other into the jugular vein for the administration of the products. The catheters are taken through to neck level. The animals are used at least 48 hours after surgical intervention.
The systolic and diastolic abdominal bood pressures are recorded by means of a Statham P23XL transducer on a Gould ES 1000 recorder. The products are administered intravenously in a volume of 0.5 ml/kg. The doses administered of the test compounds are expressed in mg/kg of base. The blood pressure is recorded in continuous fashion up to 6 hours after the treatment.
The changes in systolic blood pressure after treatment are recorded in Table VIII.

[2] = target: isolated rabbit mesenteric artery (Oryctolagus cuniculus, UniProt P15381); assay: Study on isolated rabbit mesenteric artery contracted with calcium; format: cell-based, rabbit (New Zealand); details: compound of example 50 versus its racemate
Procedure: Study on Isolated Rabbit Mesenteric Artery Contracted with Calcium
This test is performed on organs removed from male New Zealand rabbits weighing 2.5 to 3 kg, subjected to a water regimen for 18 hours before sacrifice.
After the animal is rapidly sacrificed, the mesenteric artery is removed and dissected into rings 2 mm long; the endothelium is removed mechanically.
After a stabilization period of 90 minutes, the preparations are subjected to a depolarizing medium (35 mM KCl) without calcium (0.1 mM EGTA) for 15 minutes.
A control series is prepared by adding cumulative doses of calcium to the bath every 6 minutes until a maximum of effect is produced. The preparations are then rinsed for a period of 15 minutes and the product is incubated for one hour before renewal of the calcium series.
A single concentration of the product is tested per organ.
The responses obtained in the presence of product are expressed as a percentage of the maximal value of the control series.
The pD'2 value is calculated according to the method of Van Rossum (1963).

[3] = target: T1, dihydropyridine site associated with the calcium slow channel (Rattus norvegicus, UniProt Q02485); assay: Affinity for the dihydropyridine binding site, displacement of [3H]-PN 200-110; parameters: species or system rat (Wistar); details: for Ki: displacement of [3H]-PN 200-110, microsomal membranes of rat skeletal muscle
T1 construct: microsomal membrane preparations prepared from skeletal muscle of rat (Wistar) hind limbs; from tissue; host or cells: skeletal muscle of rat (Wistar) hind limbs, microsomal fraction
Procedure: Affinity for the Dihydropyridine Binding Site
This study was carried out on microsomal membrane preparations prepared from skeletal muscle of rat (Wistar) hind limbs.
The rats are killed by decapitation. The skeletal muscles are removed and washed in buffer I (20 mM MOPS/KOH pH 7.4, 0.3M sucrose, 1 mM EDTA, 0.1 mM iodoacetamide, 1 μM pepstatin A, 1 mg/l leupeptin and 0.1 μM PMSF). The muscles are then mechanically fragmented, taken up in 4 volumes of buffer I per gramme of tissue and homogenized.
The homogenate is then centrifuged for 10 minutes at 3,200 g, the pellets are removed and the supernatants are then centrifuged for 20 minutes at 15,000 g, and the supernatants are stirred for 15 minutes at 4° C. in buffer I containing 0.6M final KCl and then centrifgued for 45 minutes at 70,000 g.
The pellets are taken up in buffer I and homogenized in a Potter. The homogenates are centrifuged at 100,000 g for 45 minutes and the pellets thereby obtained correspond to the microsomal fraction used for the studies of binding and displacement.
The activity of the product is assessed by the displacement of [^3 H]-PN 200-110, bound specifically to its receptor associated with the calcium slow channel, by increasing concentrations of the test products. The value obtained (K0.5) for each of the products, which represents the concentration of the product displacing 50% of the [^3 H]-PN 200-110, permits calculation of a true dissociation constant (KI): [formula] where [L*] is the concentration of free [^3 H]-PN 200-110 and Kd the dissociation constant at equilibrium of the [^3 H]-PN 200-110 complex, determined by direct binding.
The KI values of the two products are recorded in Table VI

[4] = system: conscious dogs with renal hypertension; assay: Study in conscious dogs with renal hypertension (oral, mean arterial pressure); format: in vivo, dog (Mongol); details: digestive route
Excerpt: Study in Conscious Dogs with Renal Hypertension
Mongol dogs weighing 20 to 25 kg are used. A Silastic® catheter, inserted under anesthesia at the level of the abdominal aorta, left in position permanently, enables the arterial pressure to be determined subsequently in the conscious animal.
Arterial hypertension is induced by a second operation, under anesthesia, consisting in constricting the left renal artery with a clip, decreasing the flow rate therein by approximately 70%, the left kidney is also covered with a latex capsule in order to restrict circulatory compensations; the contralateral kidney is left in position.
The systolic, diastolic and mean arterial pressures are determined with a Statham® P23 pressure sensor attached to the Silastic® catheter and connected to a Gould® "pressure-processor". The compounds are tested in animals which became hypertensive in the conscious state at least one week after the second operation. The arterial pressure is continuously recorded up to 7 hours after the treatment and then at 24 hours.
The compounds to be tested are administered by the digestive route through gastric tubing, in the form of a solution which may be aqueous, aqueous/alcoholic and the like, depending on the solubility of the products.
The doses administered are expressed in mg base per body weight kg.

rat aorta = assay: In vitro activity in rat aorta stimulated by potassium ions; format: cell-based, rat (male Wistar); details: 1 h; rat aorta rings, KCl 80 mM stimulation, cumulative doses at 60 minutes intervals
Procedure: Determination of the Vitro Activity in Rat Aorta Stimulated by Potassium Ions
This trial was carried out using isolated organs removed from male Wistar rats weighing 300 to 400 g, kept under a water diet 18 hours before sacrificing.
After quickly sacrificing the animal, the aorta (at the level of the arch of the aorta) is removed and dissected into 2 mm-long rings; the endothelium is removed mechanically. After an equilibration period of 1 hour in a physiological solution consisting of (mM): NaCl 112, KCl 5, KH2 PO4 1, MgSO4 1.2, CaCl2 2.5, NaHCO3 25 and glucose 11.5, the preparations are stimulated with a potassium-rich solution. The latter consists of (mM):NaCl 37, KCl 80, KH2 PO4 1, MgSO4 1.2, CaCl2 2.5, NaHCO3 25 and glucose 11.5. This solution has a pH of 7.4 at 37° C.
After 15 minutes of stabilization, the compounds to be tested are then added (sample volume 0.2 ml) at cumulative doses at 60 minutes intervals. From the relaxation values obtained, it is possible to construct a doseresponse curve, leading to the calculation of an IC50 value (expressed in M).

[5] = system: conscious spontaneous hypertensive rats (SHR); assay: Short-term studies in conscious spontaneous hypertensive rats (oral, systolic arterial pressure); format: in vivo, rat (SHR)
Procedure: Short-term Studies in Conscious Spontaneous Hypertensive Rats (SHR)
Male spontaneous hypertensive rats weighing 270 to 320 g, aged 16 to 24 weeks, are anesthetized with ether. A polyethylene catheter is introduced into the femoral artery and moved forward to the level of the tail. The pressure in the femoral artery is recorded with a Statham® P23 sensor, on a Gould® 2400 recorder. The animals are treated at least one hour after the operation. The compounds are administered orally, in the dissolved form. The doses administered are expressed in mg/kg of base. The compounds of the invention were compared with amlodipine and with another 1,4-dihydropyridine derivative reference compound, nifedipine.

[6] = system: conscious spontaneous hypertensive rats (SHR); assay: Long-term studies in conscious spontaneous hypertensive rats (oral, single daily dose, systolic arterial pressure); format: in vivo, rat (SHR); details: 1 mg/kg/d; for Systolic arterial pressure Δ(mm Hg) 24 h after the last administration of the products, D1: day 1; for Systolic arterial pressure Δ(mm Hg) 24 h after the last administration of the products, D2: day 2; for Systolic arterial pressure Δ(mm Hg) 24 h after the last administration of the products, D4: day 4; for Systolic arterial pressure Δ(mm Hg) 24 h after the last administration of the products, D7: day 7
Procedure: Long-term Studies in Conscious Spontaneous Hypertensive rats (SHR) Male rats weighing 280 to 300 g, aged 16 weeks, are used in this study. The systolic arterial pressure is determined with a Rhema multichannel 8,000® apparatus, according to the indirect method, at the tail of the animal. The compounds to be tested are administered orally, in a single daily dose. Determinations of arterial pressure are carried out each day just before the treatment. Amlodipine was also studied under the same conditions.

T1 sequence (Q02485 whole entry): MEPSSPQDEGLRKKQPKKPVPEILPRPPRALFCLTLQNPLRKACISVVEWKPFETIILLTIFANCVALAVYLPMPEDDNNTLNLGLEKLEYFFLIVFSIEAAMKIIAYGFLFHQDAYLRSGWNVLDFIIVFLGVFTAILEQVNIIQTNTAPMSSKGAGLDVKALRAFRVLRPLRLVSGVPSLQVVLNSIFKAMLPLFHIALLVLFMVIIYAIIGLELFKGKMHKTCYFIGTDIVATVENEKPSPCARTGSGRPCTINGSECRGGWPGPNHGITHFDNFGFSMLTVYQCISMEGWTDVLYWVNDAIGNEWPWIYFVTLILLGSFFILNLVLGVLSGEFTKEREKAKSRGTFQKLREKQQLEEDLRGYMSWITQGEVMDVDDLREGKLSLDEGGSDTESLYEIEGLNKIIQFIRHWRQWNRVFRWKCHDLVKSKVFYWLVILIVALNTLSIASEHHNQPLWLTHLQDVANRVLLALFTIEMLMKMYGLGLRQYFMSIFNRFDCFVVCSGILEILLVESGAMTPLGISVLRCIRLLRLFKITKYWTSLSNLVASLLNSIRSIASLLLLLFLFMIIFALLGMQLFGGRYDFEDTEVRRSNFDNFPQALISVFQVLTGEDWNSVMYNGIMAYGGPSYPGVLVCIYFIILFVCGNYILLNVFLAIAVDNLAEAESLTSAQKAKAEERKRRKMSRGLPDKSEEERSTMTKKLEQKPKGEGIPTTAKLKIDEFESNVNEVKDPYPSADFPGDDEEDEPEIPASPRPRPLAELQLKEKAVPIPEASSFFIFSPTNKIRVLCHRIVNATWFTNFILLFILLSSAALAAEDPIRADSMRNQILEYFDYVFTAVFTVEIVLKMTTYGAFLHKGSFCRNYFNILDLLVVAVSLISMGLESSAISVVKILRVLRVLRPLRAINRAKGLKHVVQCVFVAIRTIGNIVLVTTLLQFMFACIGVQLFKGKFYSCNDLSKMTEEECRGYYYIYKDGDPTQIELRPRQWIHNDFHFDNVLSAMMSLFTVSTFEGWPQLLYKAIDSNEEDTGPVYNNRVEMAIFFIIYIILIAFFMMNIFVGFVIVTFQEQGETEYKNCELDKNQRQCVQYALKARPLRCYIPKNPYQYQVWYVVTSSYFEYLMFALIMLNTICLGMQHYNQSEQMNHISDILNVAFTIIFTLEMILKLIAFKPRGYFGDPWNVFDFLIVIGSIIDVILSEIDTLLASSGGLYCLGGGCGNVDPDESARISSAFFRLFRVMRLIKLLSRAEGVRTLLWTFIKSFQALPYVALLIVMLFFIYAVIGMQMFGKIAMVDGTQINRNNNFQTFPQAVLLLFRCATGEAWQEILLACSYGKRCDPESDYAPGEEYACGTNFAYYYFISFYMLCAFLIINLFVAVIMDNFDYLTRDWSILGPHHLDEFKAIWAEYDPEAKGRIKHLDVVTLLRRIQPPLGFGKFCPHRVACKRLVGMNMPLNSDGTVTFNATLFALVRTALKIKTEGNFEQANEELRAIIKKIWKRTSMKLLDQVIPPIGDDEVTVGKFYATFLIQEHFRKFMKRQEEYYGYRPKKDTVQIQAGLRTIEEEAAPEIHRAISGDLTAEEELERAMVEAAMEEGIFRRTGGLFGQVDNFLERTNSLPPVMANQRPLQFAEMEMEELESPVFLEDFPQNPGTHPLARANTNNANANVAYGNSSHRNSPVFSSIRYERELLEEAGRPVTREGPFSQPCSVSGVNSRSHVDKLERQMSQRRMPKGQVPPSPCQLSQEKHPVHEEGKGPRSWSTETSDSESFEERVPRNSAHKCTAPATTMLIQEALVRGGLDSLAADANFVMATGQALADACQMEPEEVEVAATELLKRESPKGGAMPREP
T1 sequence (P54290 25-945 partner limits assumed): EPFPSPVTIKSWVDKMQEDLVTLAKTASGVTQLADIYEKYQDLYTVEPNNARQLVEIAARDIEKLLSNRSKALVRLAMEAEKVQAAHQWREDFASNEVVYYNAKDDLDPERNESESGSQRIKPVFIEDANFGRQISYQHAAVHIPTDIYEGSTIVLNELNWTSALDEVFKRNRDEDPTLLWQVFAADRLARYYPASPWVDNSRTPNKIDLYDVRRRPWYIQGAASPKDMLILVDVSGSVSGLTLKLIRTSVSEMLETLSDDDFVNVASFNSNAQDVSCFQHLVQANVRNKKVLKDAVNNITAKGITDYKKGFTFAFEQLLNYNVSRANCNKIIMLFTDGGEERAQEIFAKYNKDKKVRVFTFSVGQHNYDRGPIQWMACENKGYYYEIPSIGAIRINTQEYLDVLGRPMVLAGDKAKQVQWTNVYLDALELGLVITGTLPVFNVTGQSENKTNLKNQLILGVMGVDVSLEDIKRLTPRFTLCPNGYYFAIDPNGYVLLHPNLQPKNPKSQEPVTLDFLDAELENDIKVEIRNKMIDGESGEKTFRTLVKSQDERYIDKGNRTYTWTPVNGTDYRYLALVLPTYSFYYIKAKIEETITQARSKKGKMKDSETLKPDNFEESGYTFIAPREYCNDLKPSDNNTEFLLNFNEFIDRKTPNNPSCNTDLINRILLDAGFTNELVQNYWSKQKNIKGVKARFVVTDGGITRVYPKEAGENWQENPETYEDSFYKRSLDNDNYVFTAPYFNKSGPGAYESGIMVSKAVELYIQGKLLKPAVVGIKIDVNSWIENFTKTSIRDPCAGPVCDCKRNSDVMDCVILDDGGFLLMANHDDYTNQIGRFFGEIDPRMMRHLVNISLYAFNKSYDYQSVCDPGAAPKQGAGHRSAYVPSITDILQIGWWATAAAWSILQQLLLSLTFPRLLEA
T1 sequence (P54290 946-1091 partner limits assumed): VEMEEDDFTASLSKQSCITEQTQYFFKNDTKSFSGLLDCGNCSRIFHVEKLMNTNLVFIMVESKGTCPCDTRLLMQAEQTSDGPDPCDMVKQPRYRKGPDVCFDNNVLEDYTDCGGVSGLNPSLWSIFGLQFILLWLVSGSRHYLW
T1 sequence (P54283 whole entry partner): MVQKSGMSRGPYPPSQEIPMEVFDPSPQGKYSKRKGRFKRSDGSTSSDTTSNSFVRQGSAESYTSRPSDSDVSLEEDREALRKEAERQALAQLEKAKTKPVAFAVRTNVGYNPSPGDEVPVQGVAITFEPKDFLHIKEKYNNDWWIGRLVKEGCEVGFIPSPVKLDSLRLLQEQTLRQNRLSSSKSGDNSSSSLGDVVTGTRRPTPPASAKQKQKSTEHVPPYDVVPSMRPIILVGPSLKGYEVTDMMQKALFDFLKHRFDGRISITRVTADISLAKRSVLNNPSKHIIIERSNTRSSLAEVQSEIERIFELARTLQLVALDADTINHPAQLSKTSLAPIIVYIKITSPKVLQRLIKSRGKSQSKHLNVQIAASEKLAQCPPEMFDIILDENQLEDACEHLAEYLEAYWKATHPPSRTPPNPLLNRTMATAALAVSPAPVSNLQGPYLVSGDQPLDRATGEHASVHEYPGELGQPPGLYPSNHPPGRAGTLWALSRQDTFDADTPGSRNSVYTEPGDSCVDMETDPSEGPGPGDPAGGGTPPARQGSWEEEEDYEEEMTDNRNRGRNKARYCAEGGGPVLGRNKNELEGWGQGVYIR
T1 sequence (P97707 whole entry partner): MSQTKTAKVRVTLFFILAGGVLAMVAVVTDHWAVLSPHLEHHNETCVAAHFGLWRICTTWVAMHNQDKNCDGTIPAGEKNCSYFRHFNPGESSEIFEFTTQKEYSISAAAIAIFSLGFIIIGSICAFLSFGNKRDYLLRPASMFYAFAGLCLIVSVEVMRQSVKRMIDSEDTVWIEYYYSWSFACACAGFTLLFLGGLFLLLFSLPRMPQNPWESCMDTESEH

Row | SMILES | Systolic blood pressure changes (ΔmmHg) after treatment, 1H 30 min [1] [mmHg] | Systolic blood pressure changes (ΔmmHg) after treatment, 3H [1] [mmHg] | Systolic blood pressure changes (ΔmmHg) after treatment, 6H [1] [mmHg] | Ki [3] [nM] | Mean arterial pressure after treatment, Δ mm Hg, 4 h ([4]; 0.5 mg/kg) [mm Hg] | Mean arterial pressure after treatment, Δ mm Hg, 7 h ([4]; 0.5 mg/kg) [mm Hg] | Mean arterial pressure after treatment, Δ mm Hg, 24 h ([4]; 0.5 mg/kg) [mm Hg] | Mean arterial pressure after treatment, Δ mm Hg, 4 h ([4]; 1.0 mg/kg) [mm Hg] | Mean arterial pressure after treatment, Δ mm Hg, 7 h ([4]; 1.0 mg/kg) [mm Hg] | Mean arterial pressure after treatment, Δ mm Hg, 24 h ([4]; 1.0 mg/kg) [mm Hg] | IC50 (rat aorta) [nM] | Systolic arterial pressure after treatment, Δ mm Hg, 4 h ([5]; 1 mg/kg) [mm Hg] | Systolic arterial pressure after treatment, Δ mm Hg, 6 h ([5]; 1 mg/kg) [mm Hg] | Systolic arterial pressure after treatment, Δ mm Hg, 24 h ([5]; 1 mg/kg) [mm Hg] | Systolic arterial pressure after treatment, Δ mm Hg, 4 h ([5]; 3 mg/kg) [mm Hg] | Systolic arterial pressure after treatment, Δ mm Hg, 6 h ([5]; 3 mg/kg) [mm Hg] | Systolic arterial pressure after treatment, Δ mm Hg, 24 h ([5]; 3 mg/kg) [mm Hg] | Systolic arterial pressure Δ(mm Hg) 24 h after the last administration of the products, D1 [6] [mm Hg] | Systolic arterial pressure Δ(mm Hg) 24 h after the last administration of the products, D2 [6] [mm Hg] | Systolic arterial pressure Δ(mm Hg) 24 h after the last administration of the products, D4 [6] [mm Hg] | other results
1 | CCOC(=O)C1=C(COCCOCCN)NC(C)=C(C(=O)OC)C1c1cccc(Cl)c1Cl (single isomer, unassigned; (-)) [EXAMPLE 50, (-)-2-{[2-(2-Aminoethoxy)ethoxy]methyl}-4-(2,3-dichlorophenyl)-3-ethoxycarbonyl-5-methoxycarbonyl-6-methyl-1,4-dihydropyridine] | -16 ± 2 | -18 ± 2 | -21 ± 5 | 0.28 ± 0.15 | – | – | – | – | – | – | – | – | – | – | – | – | – | – | – | – | activity compared with its racemate six hours after treatment ([1]; same dose, six hours after treatment, versus racemate): approximately 4 times; activity compared with its racemate, in words ([1]; versus racemate): more potent and sustained even better over a period of time; superiority compared with its racemate in preventing a calcium-induced vascular contraction [2]: more than double; affinity for the dihydropyridine sites compared with its racemate ([3]; compound of example 50 versus its racemate): 30 times
2 | CCOC(=O)C1=C(COCCOCCN)NC(C)=C(C(=O)OC)C1c1c(F)c(F)c(F)c(F)c1F (racemic) [EXAMPLE 1, (4R,S)-2-{[2-(2-Aminoethoxy)ethoxy]methyl}-3-ethoxycarbonyl-5-methoxycarbonyl-6-methyl-4-pentafluorophenyl-1,4-dihydropyridine hemifumarate] | – | – | – | – | -21 | -22 | -15 | -45 | -47 | -46 | 25 | -44 | -54 | -47 | -79 | -78 | -71 | -52 | -51 | -44 | Systolic arterial pressure Δ(mm Hg) 24 h after the last administration of the products, D3 ([6]; day 3): -49 mm Hg; Systolic arterial pressure Δ(mm Hg) 24 h after the last administration of the products, D7 [6]: -46 mm Hg
3 | CCOC(=O)C1=C(COCCOCCN)NC(C)=C(C(=O)OC)C1c1cccc(Cl)c1Cl (racemic) [EXAMPLE 6, (4R,S)-2-{[2-(2-Aminoethoxy)ethoxy]methyl}-4-(2,3-dichlorophenyl)-3-ethoxycarbonyl-5-methoxycarbonyl-6-methyl-1,4-dihydropyridine] | -11 ± 3 | -5 ± 3 | -5 ± 2 | 8.2 ± 1.7 | -20 | -29 | -11 | -40 | -44 | -49 | 5 | -14 | -17 | -17 | -52 | -55 | -36 | -22 | -18 | -17 | Systolic arterial pressure Δ(mm Hg) 24 h after the last administration of the products, D7 [6]: -31 mm Hg

Reference: patent US4983740A, “Process for 1,4-dihydropyridine compounds” (Adir et Compagnie, priority 1986, dated 1991)
